Counter-ions that a name gives are not always drawn.
Test system: Frataxin (FXN) mRNA expression
Test: Effect of HDAC inhibitors on frataxin (FXN) mRNA expression in iPSC derived neuronal cells (qRT-PCR)
Type: cell-based
Details: iPSC derived neuronal cells differentiated 16 days, compound incubated 24 h
Description: Effect of HDAC Inhibitors on Frataxin (FXN) mRNA Expression
Method: mRNA quantification of compound-treated iPSC derived neuronal cells Neuronal stem cells were cultured in Neurobasal A medium (Life technologies #10888022) supplemented with N2, B27 (Life technologies #17502-048 and #17504-044), L-glutamine (Life technologies #25030081), supplemented with 20 ng/ml EGF (R&D Systems #236-EG) and 20 ng/ml bFGF (BioPioneer # HRP-0011). Neuronal differentiation was initiated by removing growth factors and culturing cells in Neurobasal A with N2 and B27. Cells were allowed to differentiate for 16 days. HDAC inhibitory compound was then added and incubate for 24 h. RNA isolation was performed using the RNeasy Plus mini kit (QIAgen #74134) using a QIAcube instrument per manufacturer's instructions. qRT-PCR was performed using qScript One-Step SYBR Green qRT-PCR Kit (Quanta Biosciences 170-8893BR) with the following conditions: 20 minutes at 50° C., 5 minutes at 95° C., and then 40 cycles of 20 seconds at 95° C., 20 seconds at 55° C., 30 seconds at 72° C. The primer sequences to detect expression of FXN were: 5′-[…]-3′ and 5′-[…]-3′.
Data for additional compounds for iPSC fold inductions and cLogP are shown in Table 4 The ranges reported for cLogP refer to the following. A<1, 1<B<2, 2<C<3, 3<D<5, E>5. NA refers to “not available.”

| SMILES | Fold Induction |
| --- | --- |
| CC(C)(C)CN1CCC(Cc2ccc(C(=O)Nc3ccc(F)cc3N)cc2)CC1 [Compound 162, N-(2-amino-4-fluorophenyl)-4-((1-neopentylpiperidin-4-yl)methyl)benzamide] | 1.3 |
| Cl.Cl.Nc1ccccc1NC(=O)c1ccc(CN2CCCCC2)cc1 [Compound 171, N-(2-aminophenyl)-4-(piperidin-1-ylmethyl)benzamide] | 0.9 |
| CC1(C)CN(CC2CC2)CCN1Cc1ccc(C(=O)Nc2ccccc2N)cc1 [Compound 491, N-(2-aminophenyl)-4-((4-(cyclopropylmethyl)-2,2-dimethylpiperazin-1-yl)methyl)benzamide] | 1.7 |
| CC(C)(O)CN1CCN(Cc2ccc(C(=O)Nc3ccccc3N)cc2)CC1.Cl.Cl.Cl [Compound 146, N-(2-aminophenyl)-4-((4-(2-hydroxy-2-methylpropyl)piperazin-1-yl)methyl)benzamide] | 1.8 |
| C[C@@H]1CN(Cc2ccc(C(=O)Nc3ccccc3N)cc2)CCN1CC1CC1 [Compound 479, (R)-N-(2-aminophenyl)-4-((4-(cyclopropylmethyl)-3-methylpiperazin-1-yl)methyl)benzamide] | 2.2 |
| C[C@@H]1CN(Cc2ccc(C(=O)Nc3ccccc3N)cc2)C[C@H](C)N1CC1CC1 [Compound 487, N-(2-aminophenyl)-4-(((3R,5S)-4-(cyclopropylmethyl)-3,5-dimethylpiperazin-1-yl)methyl)benzamide] | 1.3 |
| Nc1ccccc1NC(=O)c1ccc(CC2CCN(CC34CC5CC(CC(C5)C3)C4)CC2)cc1 [Compound 354, 4-((1-(((3r,5r,7r)-adamantan-1-yl)methyl)piperidin-4-yl)methyl)-N-(2-aminophenyl)benzamide] | 1.9 |
| Nc1ccccc1NC(=O)c1ccc(CC2CCN(CC3CC3)C2)cc1 (stereo not drawn) [Compound 555, N-(2-aminophenyl)-4-((1-(cyclopropylmethyl)pyrrolidin-3-yl)methyl)benzamide] | 1.11 |
| Nc1ccccc1NC(=O)c1ccc(CN2CCCN(CC3CC3)CC2)cc1 [Compound 485, N-(2-aminophenyl)-4-((4-(cyclopropylmethyl)-1,4-diazepan-1-yl)methyl) benzamide trihydrochloride] | 2.2 |
| CC(C)=CC1CCN(Cc2ccc(C(=O)Nc3ccccc3N)cc2)CC1 [Compound 472, N-(2-aminophenyl)-4-((4-(2-methylprop-1-en-1-yl)piperidin-1-yl)methyl)benzamide] | 1.5 |
| Nc1ccccc1NC(=O)c1ccc(CN2CC3(C2)CN(CC2CC2)C3)cc1 [Compound 238, N-(2-aminophenyl)-4-((6-(cyclopropylmethyl)-2,6-diazaspiro[3.3]heptan-2-yl)methyl)benzamide] | 1.5 |
| C[C@@H]1CN(Cc2ccc(C(=O)Nc3ccccc3N)cc2)CCN1CC(C)(C)O [Compound 480, (R)-N-(2-aminophenyl)-4-((4-(2-hydroxy-2-methylpropyl)-3-methylpiperazin-1-yl)methyl)benzamide] | 2.0 |
| Nc1ccccc1NC(=O)c1ccc(CN2CC3(CNC3)C2)cc1 [Compound 241, 4-((2,6-diazaspiro[3.3]heptan-2-yl)methyl)-N-(2-aminophenyl)benzamide] | 1.9 |
| CC(C)(O)CN1CCCC(Cc2ccc(C(=O)Nc3ccccc3N)cc2)CC1.Cl.Cl (stereo not drawn) [Compound 379, N-(2-aminophenyl)-4-((1-(2-hydroxy-2-methylpropyl)azepan-4-yl)methyl)benzamide dihydrochloride] | 2.1 |
| C[C@H]1CN(CC2CC2)CCN1Cc1ccc(C(=O)Nc2ccccc2N)cc1 [Compound 481, (S)-N-(2-aminophenyl)-4-((4-(cyclopropylmethyl)-2-methylpiperazin-1-yl)methyl)benzamide] | 1.6 |
| Cl.Cl.Cl.Nc1ccccc1NC(=O)c1ccc(CN2CCN(CC3CC3)CC2)cc1 [Compound 147, N-(2-aminophenyl)-4-((4-(cyclopropylmethyl)piperazin-1-yl)methyl)benzamide] | 1.8 |
| CC1(C)CC(Cc2ccc(C(=O)Nc3ccccc3N)cc2)CCN1 (stereo not drawn) [Compound 359, N-(2-aminophenyl)-4-((2,2-dimethylpiperidin-4-yl)methyl)benzamide] | 1.9 |
| C[C@@H]1CN(CC(C)(C)O)C[C@H](C)N1Cc1ccc(C(=O)Nc2ccccc2N)cc1 [Compound 490, N-(2-aminophenyl)-4-(((2R,6S)-4-(2-hydroxy-2-methylpropyl)-2,6-dimethylpiperazin-1-yl)methyl)benzamide] | 1.4 |
| CC(C)(O)CN1CCC(Cc2ccc(C(=O)Nc3ccccc3N)cc2)CC1(C)C (stereo not drawn) [Compound 357, N-(2-aminophenyl)-4-((1-(2-hydroxy-2-methylpropyl)-2,2-dimethylpiperidin-4-yl)methyl)benzamide] | 1.7 |
| CC(C)(O)CN1CCN(Cc2ccc(C(=O)Nc3ccccc3N)cc2)C(C)(C)C1 [Compound 492, N-(2-aminophenyl)-4-((4-(2-hydroxy-2-methylpropyl)-2,2-dimethylpiperazin-1-yl)methyl)benzamide] | 1.2 |
| CC1(C)CC(Cc2ccc(C(=O)Nc3ccccc3N)cc2)CCN1CC1CC1 (stereo not drawn) [Compound 356, N-(2-aminophenyl)-4-((1-(cyclopropylmethyl)-2,2-dimethylpiperidin-4-yl)methyl)benzamide] | 2.0 |
| CC(C)(O)CN1CCN(Cc2ccc(C(=O)Nc3ccccc3N)cc2)CC1(C)C [Compound 484, N-(2-aminophenyl)-4-((4-(2-hydroxy-2-methylpropyl)-3,3-dimethylpiperazin-1-yl)methyl)benzamide] | 1.6 |
| CC(C)(O)CC1CCN(Cc2ccc(C(=O)Nc3ccccc3N)cc2)CC1 [Compound 181, N-(2-aminophenyl)-4-((4-(2-hydroxy-2-methylpropyl)piperidin-1-yl)methyl)benzamide] | 1.5 |
| C[C@@H]1CN(CC2CC2)C[C@H](C)N1Cc1ccc(C(=O)Nc2ccccc2N)cc1 [Compound 489, N-(2-aminophenyl)-4-(((2R,6S)-4-(cyclopropylmethyl)-2,6-dimethylpiperazin-1-yl)methyl)benzamide] | 1.5 |
| Nc1ccccc1NC(=O)c1ccc(CN2CCC3(CC2)COC3)cc1 [Compound 175, 4-((2-oxa-7-azaspiro[3.5]nonan-7-yl)methyl)-N-(2-aminophenyl)benzamide] | 1.5 |
| CC(C)(O)CN1CCC(Cc2ccc(C(=O)Nc3ccc(F)cc3N)cc2)CC1 [Compound 161, N-(2-amino-4-fluorophenyl)-4-((1-(2-hydroxy-2-methylpropyl)piperidin-4-yl)methyl)benzamide] | 1.2 |
| C[C@@H]1CN(Cc2ccc(C(=O)Nc3ccccc3N)cc2)C[C@H](C)N1CC(C)(C)O [Compound 488, N-(2-aminophenyl)-4-(((3R,5S)-4-(2-hydroxy-2-methylpropyl)-3,5-dimethylpiperazin-1-yl)methyl)benzamide] | 1.5 |

Source: US20200087314A1, “HISTONE DEACETYLASE INHIBITORS” (BIOMARIN PHARMACEUTICAL INC., priority 2016, published 2020)
